Biological target: T1, Xanthine oxidase from bovine milk (Bos taurus, UniProt P80457)
T1 construct: Xanthine oxidase from bovine milk and allopurinol were purchased from Sigma-Aldrich; purchased Sigma-Aldrich (St Louis MO, USA); host or cells: bovine milk (natural source)
Experiment: Assessment of XO activity (formation of uric acid from xanthine, 295 nm)
Format: biochemical
Details: pure compounds; for Inhibition type: kinetic analysis; for Ki: kinetic analysis (Lineweaver-Burk, Grafit 6); for IC50: XO inhibition
Experimental: XO activity was determined by measuring the formation of uric acid from xanthine within a set time. Changes in the levels of uric acid produced through the presence of the test samples allow the potency of inhibitors to be assessed. Initially the effect of the polyphenolic fractions and compounds on the inhibition of enzymatic activity was assessed at substrate concentration where maximum velocity was obtained. All initial reaction rates were in the linear scale and were measured over the first 4 min of the reaction. Each assay was performed in triplicates and the optical density was measured using a Hitachi U-1500 Spectrophotometer (San Jose, USA). […] The reaction was initiated through the addition of 43 mU unit of XO diluted in H2O. […] Control samples were prepared identically to the test samples without the addition of the specimen.
The measured absorbance was corrected for the contribution of the tested fractions and the pure polyphenolic compounds.
Statistical computations were carried out using SPSS 13.0 software. For statistical analysis, one-way ANOVA was applied followed by Dunnett's test for multiple pair-wise comparisons. Differences were considered significant at p<0.05. The steady state kinetic parameters (Km and Vmax) were determined (under standard assays conditions) by analyzing formation of uric acid from xanthine under initial rate conditions using the Lineweaver-Burk linearization of the Micaelis-Menten equation. The Ki values and the apparent kinetic parameters Km and Vmax were analyzed with the statistic package Grafit 6 (Erithacus Software, Ltd., Horley, UK).

T1 sequence (P80457 whole entry): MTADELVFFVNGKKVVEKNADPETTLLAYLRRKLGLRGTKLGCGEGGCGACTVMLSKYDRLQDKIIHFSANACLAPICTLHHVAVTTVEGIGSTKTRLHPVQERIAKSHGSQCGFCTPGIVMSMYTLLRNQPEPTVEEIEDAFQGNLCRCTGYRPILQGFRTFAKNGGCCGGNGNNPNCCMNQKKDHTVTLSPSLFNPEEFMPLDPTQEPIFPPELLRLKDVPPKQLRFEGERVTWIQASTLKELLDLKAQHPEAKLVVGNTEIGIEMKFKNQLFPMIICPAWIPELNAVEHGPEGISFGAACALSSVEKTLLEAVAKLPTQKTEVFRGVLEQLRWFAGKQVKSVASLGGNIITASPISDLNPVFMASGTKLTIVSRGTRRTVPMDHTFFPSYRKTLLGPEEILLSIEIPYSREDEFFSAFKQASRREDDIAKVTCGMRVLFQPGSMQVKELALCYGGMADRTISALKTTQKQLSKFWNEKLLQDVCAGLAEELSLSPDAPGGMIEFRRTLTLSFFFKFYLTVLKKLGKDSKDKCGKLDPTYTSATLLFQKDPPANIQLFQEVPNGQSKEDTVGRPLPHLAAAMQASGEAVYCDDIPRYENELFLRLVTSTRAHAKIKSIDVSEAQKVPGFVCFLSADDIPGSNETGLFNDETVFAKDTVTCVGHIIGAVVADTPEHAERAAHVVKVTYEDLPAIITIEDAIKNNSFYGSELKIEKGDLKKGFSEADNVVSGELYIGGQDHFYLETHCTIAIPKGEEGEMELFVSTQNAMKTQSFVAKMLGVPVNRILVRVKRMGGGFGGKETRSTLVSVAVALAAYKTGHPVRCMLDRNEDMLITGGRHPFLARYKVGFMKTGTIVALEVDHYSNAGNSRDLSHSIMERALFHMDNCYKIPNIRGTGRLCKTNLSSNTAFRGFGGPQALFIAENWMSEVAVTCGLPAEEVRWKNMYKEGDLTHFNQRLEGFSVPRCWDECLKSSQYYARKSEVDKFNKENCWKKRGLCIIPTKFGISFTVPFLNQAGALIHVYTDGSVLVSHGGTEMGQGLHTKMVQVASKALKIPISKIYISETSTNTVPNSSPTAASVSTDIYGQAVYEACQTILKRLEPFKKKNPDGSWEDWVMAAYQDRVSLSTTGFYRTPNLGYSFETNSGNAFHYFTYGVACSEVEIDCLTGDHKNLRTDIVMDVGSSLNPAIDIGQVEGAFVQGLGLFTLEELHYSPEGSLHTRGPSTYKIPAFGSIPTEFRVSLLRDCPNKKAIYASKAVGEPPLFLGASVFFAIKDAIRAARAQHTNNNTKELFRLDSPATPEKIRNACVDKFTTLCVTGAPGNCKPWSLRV

SMILES	Inhibition type	Ki	IC50
Oc1ncnc2[nH]ncc12 [Allopurinol, 4-hydroxypyrazolo (3,4-d) pyrimidine, reference compound]	Competitive		
CC1OC(Oc2cc(O)c3c(=O)c(OC4OC(CO)C(O)C(O)C4OC4OC(C)C(O)C(O)C4O)c(-c4ccc(O)c(O)c4)oc3c2)C(O)C(O)C1O [Compound 1, Quercetin 3-O-[α-L-rhamnopyranosyl(1→2)-β-D-galactopyranosyl]-7-O-α-L-rhamnopyranoside]	Non competitive	115 µM	
CC1OC(Oc2cc(O)c3c(=O)c(OC4OC(CO)C(O)C(O)C4OC4OC(C)C(O)C(O)C4O)c(-c4ccc(O)c(O)c4)oc3c2)C(O)C(O)C1O [Compound 2, Quercetin 3-O[α-L-rhamnopyranosyl(1→2)-β-D-glucopyranosyl]-7-O-α-L-rhamnopyranoside]		186 µM	
CC1=CC(=O)CC(C)(C)C1(O)C=CC(C)OC1OC(CO)C(O)C(O)C1O [Compound 3, (6S,9R)-Roseoside]	Non competitive	767 µM	
CC1OC(Oc2cc(O)c3c(=O)c(OC4OC(CO)C(O)C(O)C4OC4OC(C)C(O)C(O)C4O)c(-c4ccc(O)cc4)oc3c2)C(O)C(O)C1O [Compound 4a, Kaempferol 3-O-[α-L-rhamnopyranosyl(1→2)-β-D-glucopyranosyl]-7-O-α-L-rhamnopyranoside]	Non competitive	651 µM	
CC1OC(Oc2cc(O)c3c(=O)c(OC4OC(CO)C(O)C(O)C4OC4OC(C)C(O)C(O)C4O)c(-c4ccc(O)cc4)oc3c2)C(O)C(O)C1O [Compound 4b, Kaempferol 3-O-[α-L-rhamnopyranosyl(1→2)-β-D-galactopyranosyl]-7-O-α-L-rhamnopyranoside]		50 µM	
CC1OC(Oc2cc(O)c3c(=O)c(OC4OC(CO)C(O)C(O)C4O)c(-c4ccc(O)cc4)oc3c2)C(O)C(O)C1O [Compound 5, Kaempferol 3-O-β-D-galactopyranosyl-7-O-α-L-rhamnopyranoside]	Non competitive	345 µM	
CC1OC(Oc2cc(O)c3c(=O)c(OC4OCC(O)C(O)C4O)c(-c4ccc(O)cc4)oc3c2)C(O)C(O)C1O [Compound 9, Kaempferol 3-O-α-L-arabinopyranosyl-7-O-α-L-rhamnopyranoside]	Non competitive	210 µM	112 µM
CC1OC(Oc2cc(O)c3c(=O)c(OC4OC(CO)C(O)C(O)C4O)c(-c4ccc(O)cc4)oc3c2)C(O)C(O)C1O [Compound 10, Kaempferol 3-O-β-D-glucopyranosyl-7-O-α-L-rhamnopyranoside]	Non competitive	177 µM	70.6 µM
